Key:
Assay type in all cases: in vivo
[1] = system: Amaranthus palmeri (AMAPA); assay: Pre-emergence Test (Table B1), AMAPA; conditions: evaluated after 13 days
[2] = system: Echinochloa crus-galli (ECHCG); assay: Post-emergence Test (Table B2), ECHCG; set-up: key: 5-point damage scale: 5=81-100%, 4=61-80%, 3=41-60%, 2=21-40%, 1=0-20%; conditions: evaluated after 13 days
Procedure: (§1) Seeds of a variety of test species are sown in standard soil in pots (Ipomoea hederacea (IPOHE), Zea mays (ZEAMX), Echinochloa crus-galli (ECHCG), Amaranthus palmeri (AMAPA), (Amaranthus retoflexus (AMARE), and (Setaria faberi (SETFA)). After 8 days cultivation under controlled conditions in a glasshouse (at 24° C./16° C., day/night; 14 hours light; 65% humidity), the plants are sprayed with an aqueous spray solution derived from the formulation of the technical active ingredient in acetone/water (50:50) solution containing 0.5% Tween 20 (polyoxyethelyene sorbitan monolaurate, CAS RN 9005-64-5). Rate of application is shown in g/ha in the tables below. The test plants are then grown in a glasshouse under controlled conditions in a glasshouse (at 24° C./16° C., day/night; 14 hours light; 65% humidity) and watered twice daily. After 13 days the test is evaluated for the percentage damage caused to the plant. The biological activities are shown in the following table on a five-point scale (5=81-100%; 4=61-80%; 3=41-60%; 2=21-40%; 1=0-20%; -=not tested).

Zea mays (ZEAMX) [3] = assay: Pre-emergence Test (Table B1), ZEAMX; conditions: evaluated after 13 days
[4] = system: Amaranthus retoflexus (AMARE); assay: Post-emergence Test (Table B2), AMARE; set-up: key: five-point scale: 5=81-100%, 4=61-80%, 3=41-60%, 2=21-40%, 1=0-20% damage; conditions: evaluated after 13 days
Procedure: as §1

[5] = system: Ipomoea hederacea (IPOHE); assay: Pre-emergence Test (Table B1), IPOHE; conditions: evaluated after 13 days
[6] = system: Amaranthus palmeri (AMAPA); assay: Post-emergence Test (Table B2), AMAPA; set-up: key: five-point scale: 5=81-100%, 4=61-80%, 3=41-60%, 2=21-40%, 1=0-20% damage; conditions: evaluated after 13 days
Procedure: as §1

[7] = system: Amaranthus retoflexus (AMARE); assay: Pre-emergence Test (Table B1), AMARE; conditions: evaluated after 13 days
[8] = system: Echinochloa crus-galli (ECHCG); assay: Pre-emergence Test (Table B1), ECHCG; conditions: Rate 250 g/Ha, evaluated after 13 days
Zea mays (ZEAMX) [9] = assay: Post-emergence Test (Table B2), ZEAMX; set-up: key: 5-point damage scale: 5=81-100%, 4=61-80%, 3=41-60%, 2=21-40%, 1=0-20%; conditions: evaluated after 13 days
Method in brief: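 Evaluation 13 days post-spray gives percent plant damage, reported in five 20% bands (1=0-20% up to 5=81-100%). Test species, sown in soil and kept at 24/16 °C day/night with 14 h light, are treated with compound in 50:50 acetone/water plus 0.5% Tween 20, applied per g/ha.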

Setaria faberi (SETFA) = assay: Post-emergence Test (Table B2), SETFA; set-up: key: five-point scale: 5=81-100%, 4=61-80%, 3=41-60%, 2=21-40%, 1=0-20% damage; conditions: evaluated after 13 days
Procedure: as §1

CCn1c(Cc2ccc(OC)cc2Cl)cc(=O)c(C(=O)O)c1-c1ccc(Cl)c(Cl)c1 [Compound 69, 6-[(2-chloro-4-methoxy-phenyl)methyl]-2-(3,4-dichlorophenyl)-1-ethyl-4-oxo-pyridine-3-carboxylic acid]
0: Pre-emergence Test, percentage damage caused to the plant (five-point scale), AMAPA ([1]; Rate 1000 g/Ha) | percentage damage caused to the plant, ECHCG ([2]; rate 1000 g/Ha) | Pre-emergence Test, percentage damage caused to the plant (five-point scale), ZEAMX (Zea mays (ZEAMX) [3]; Rate 1000 g/Ha) | percentage damage caused to the plant, AMARE ([4]; rate 1000 g/Ha) | Pre-emergence Test, percentage damage caused to the plant (five-point scale), IPOHE ([5]; Rate 1000 g/Ha) | percentage damage caused to the plant, AMAPA ([6]; rate 1000 g/Ha) | Pre-emergence Test, percentage damage caused to the plant (five-point scale), AMARE ([7]; Rate 1000 g/Ha)

CCn1c(Cc2cc(C)n(C)n2)cc(=O)c(C(=O)O)c1-c1ccc(Cl)c(Cl)c1 [Compound 120, 2-(3,4-dichlorophenyl)-6-[(1,5-dimethylpyrazol-3-yl)methyl]-1-ethyl-4-oxo-pyridine-3-carboxylic acid]
0: Pre-emergence Test, percentage damage caused to the plant (five-point scale), AMAPA ([1]; Rate 250 g/Ha) | Pre-emergence Test, percentage damage caused to the plant (five-point scale), ECHCG [8] | Pre-emergence Test, percentage damage caused to the plant (five-point scale), ZEAMX (Zea mays (ZEAMX) [3]; Rate 250 g/Ha) | percentage damage caused to the plant, AMARE ([4]; rate 250 g/Ha) | Pre-emergence Test, percentage damage caused to the plant (five-point scale), IPOHE ([5]; Rate 250 g/Ha) | percentage damage caused to the plant, AMAPA ([6]; rate 250 g/Ha) | Pre-emergence Test, percentage damage caused to the plant (five-point scale), AMARE ([7]; Rate 250 g/Ha)

CCn1c(Cc2cncc(Cl)c2)cc(=O)c(C(=O)O)c1-c1ccc(Cl)c(Cl)c1 [Compound 17, 6-[(5-chloro-3-pyridyl)methyl]-2-(3,4-dichlorophenyl]-1-ethyl-4-oxo-pyridine-3-carboxylic acid]
0: Pre-emergence Test, percentage damage caused to the plant (five-point scale), AMAPA ([1]; Rate 250 g/Ha) | percentage damage caused to the plant, ZEAMX (Zea mays (ZEAMX) [9]; rate 250 g/Ha) | percentage damage caused to the plant, ECHCG ([2]; rate 250 g/Ha) | Pre-emergence Test, percentage damage caused to the plant (five-point scale), ECHCG [8] | Pre-emergence Test, percentage damage caused to the plant (five-point scale), ZEAMX (Zea mays (ZEAMX) [3]; Rate 250 g/Ha) | percentage damage caused to the plant, AMARE ([4]; rate 250 g/Ha) | Pre-emergence Test, percentage damage caused to the plant (five-point scale), IPOHE ([5]; Rate 250 g/Ha) | percentage damage caused to the plant, AMAPA ([6]; rate 250 g/Ha) | Pre-emergence Test, percentage damage caused to the plant (five-point scale), AMARE ([7]; Rate 250 g/Ha)

CCOc1cccc(Cc2cc(=O)c(C(=O)O)c(-c3ccc(Cl)c(Cl)c3)n2CC)n1 [Compound 127, 2-(3,4-dichlorophenyl)-6-[(6-ethoxy-2-pyridyl)methyl]-1-ethyl-4-oxo-pyridine-3-carboxylicacid]
0: Pre-emergence Test, percentage damage caused to the plant (five-point scale), AMAPA ([1]; Rate 250 g/Ha) | percentage damage caused to the plant, ZEAMX (Zea mays (ZEAMX) [9]; rate 250 g/Ha) | percentage damage caused to the plant, ECHCG ([2]; rate 250 g/Ha) | Pre-emergence Test, percentage damage caused to the plant (five-point scale), ECHCG [8] | Pre-emergence Test, percentage damage caused to the plant (five-point scale), ZEAMX (Zea mays (ZEAMX) [3]; Rate 250 g/Ha) | Pre-emergence Test, percentage damage caused to the plant (five-point scale), IPOHE ([5]; Rate 250 g/Ha) | Pre-emergence Test, percentage damage caused to the plant (five-point scale), AMARE ([7]; Rate 250 g/Ha) | percentage damage caused to the plant, SETFA (Setaria faberi (SETFA); rate 250 g/Ha)

CCn1c(Cc2ccc(F)cc2Cl)cc(=O)c(C(=O)O)c1-c1ccc(Cl)c(Cl)c1 [Compound 68, 6-[(2-chloro-4-fluoro-phenyl)methyl]-2-(3,4-dichlorophenyl)-1-ethyl-4-oxo-3-pyridine-3-carboxylic acid]
0: percentage damage caused to the plant, ECHCG ([2]; rate 1000 g/Ha) | Pre-emergence Test, percentage damage caused to the plant (five-point scale), ZEAMX (Zea mays (ZEAMX) [3]; Rate 1000 g/Ha) | percentage damage caused to the plant, AMARE ([4]; rate 1000 g/Ha) | Pre-emergence Test, percentage damage caused to the plant (five-point scale), IPOHE ([5]; Rate 1000 g/Ha) | percentage damage caused to the plant, AMAPA ([6]; rate 1000 g/Ha)

CCn1c(Cc2cc(C)on2)cc(=O)c(C(=O)O)c1-c1ccc(Cl)c(Cl)c1 [Compound 135, 2-(3,4-dichlorophenyl)-1-ethyl-6-[(5-methylisoxazol-3-yl)methyl]-4-oxo-pyridine-3-carboxylic acid]
0: Pre-emergence Test, percentage damage caused to the plant (five-point scale), AMAPA ([1]; Rate 250 g/Ha) | percentage damage caused to the plant, ECHCG ([2]; rate 250 g/Ha) | Pre-emergence Test, percentage damage caused to the plant (five-point scale), ECHCG [8] | Pre-emergence Test, percentage damage caused to the plant (five-point scale), ZEAMX (Zea mays (ZEAMX) [3]; Rate 250 g/Ha) | Pre-emergence Test, percentage damage caused to the plant (five-point scale), IPOHE ([5]; Rate 250 g/Ha) | percentage damage caused to the plant, SETFA (Setaria faberi (SETFA); rate 250 g/Ha)

CCn1c(Cc2ccccc2C)cc(=O)c(C(=O)O)c1-c1ccc(Cl)c(Cl)c1 [Compound 15, 2-(3,4-dichlorophenyl)-1-ethyl-6-(o-tolylmethyl)-4-oxo-pyridine-3-carboxylic acid]
0: percentage damage caused to the plant, ECHCG ([2]; rate 1000 g/Ha) | percentage damage caused to the plant, SETFA (Setaria faberi (SETFA); rate 1000 g/Ha)

CCn1c(Cc2cccc(OC)c2)cc(=O)c(C(=O)O)c1-c1ccc(Cl)c(Cl)c1 [Compound 9, 2-(3,4-dichlorophenyl)-1-ethyl-6-[(3-methoxyphenyl)methyl]-4-oxo-pyridine-3-carboxylic acid]
0: percentage damage caused to the plant, ZEAMX (Zea mays (ZEAMX) [9]; rate 250 g/Ha) | percentage damage caused to the plant, ECHCG ([2]; rate 250 g/Ha) | Pre-emergence Test, percentage damage caused to the plant (five-point scale), ECHCG [8] | Pre-emergence Test, percentage damage caused to the plant (five-point scale), ZEAMX (Zea mays (ZEAMX) [3]; Rate 250 g/Ha) | percentage damage caused to the plant, AMARE ([4]; rate 250 g/Ha) | Pre-emergence Test, percentage damage caused to the plant (five-point scale), IPOHE ([5]; Rate 250 g/Ha) | Pre-emergence Test, percentage damage caused to the plant (five-point scale), AMARE ([7]; Rate 250 g/Ha) | percentage damage caused to the plant, SETFA (Setaria faberi (SETFA); rate 250 g/Ha)

CCn1c(Cc2ccc(OC)cc2F)cc(=O)c(C(=O)O)c1-c1ccc(Cl)c(Cl)c1 [Compound 89, 2-(3,4-dichlorophenyl)-1-ethyl-6-[(2-fluoro-4-methoxy-phenyl)methyl]-4-oxo-pyridine-3-carboxylic acid]
0: percentage damage caused to the plant, ECHCG ([2]; rate 250 g/Ha) | Pre-emergence Test, percentage damage caused to the plant (five-point scale), ZEAMX (Zea mays (ZEAMX) [3]; Rate 250 g/Ha) | percentage damage caused to the plant, AMARE ([4]; rate 250 g/Ha) | Pre-emergence Test, percentage damage caused to the plant (five-point scale), IPOHE ([5]; Rate 250 g/Ha) | percentage damage caused to the plant, AMAPA ([6]; rate 250 g/Ha) | percentage damage caused to the plant, SETFA (Setaria faberi (SETFA); rate 250 g/Ha)

CCn1c(Cc2cc(Cl)cc(Cl)c2)cc(=O)c(C(=O)O)c1-c1ccc(Cl)c(Cl)c1 [Compound 10, 2-(3,4-dichlorophenyl)-6-[(3,5-dichlorophenyl)methyl]-1-ethyl-4-oxo-pyridine-3-carboxylic acid]
0: percentage damage caused to the plant, ZEAMX (Zea mays (ZEAMX) [9]; rate 1000 g/Ha) | percentage damage caused to the plant, ECHCG ([2]; rate 1000 g/Ha) | percentage damage caused to the plant, SETFA (Setaria faberi (SETFA); rate 1000 g/Ha)

CCn1c(Cc2cccc(C(F)(F)F)c2)cc(=O)c(C(=O)O)c1-c1ccc(Cl)c(Cl)c1 [Compound 8, 2-(3,4-dichlorophenyl)-1-ethyl-4-oxo-6-[[3-(trifluoromethyl)phenyl]methyl]pyridine-3-carboxylic acid]
0: percentage damage caused to the plant, ZEAMX (Zea mays (ZEAMX) [9]; rate 250 g/Ha) | percentage damage caused to the plant, ECHCG ([2]; rate 250 g/Ha) | percentage damage caused to the plant, AMARE ([4]; rate 250 g/Ha) | percentage damage caused to the plant, AMAPA ([6]; rate 250 g/Ha) | percentage damage caused to the plant, SETFA (Setaria faberi (SETFA); rate 250 g/Ha)

CCn1c(Cc2ccc(C)cc2F)cc(=O)c(C(=O)O)c1-c1ccc(Cl)c(Cl)c1 [Compound 67, 2-(3,4-dichlorophenyl)-1-3ethyl-6-[(2-fluoro-4-methyl-phenyl)methyl]-4-oxo-pyridine-3-3-carboxylic acid]
0: Pre-emergence Test, percentage damage caused to the plant (five-point scale), AMAPA ([1]; Rate 250 g/Ha) | percentage damage caused to the plant, ECHCG ([2]; rate 250 g/Ha) | Pre-emergence Test, percentage damage caused to the plant (five-point scale), ZEAMX (Zea mays (ZEAMX) [3]; Rate 250 g/Ha) | Pre-emergence Test, percentage damage caused to the plant (five-point scale), IPOHE ([5]; Rate 250 g/Ha) | percentage damage caused to the plant, AMAPA ([6]; rate 250 g/Ha) | Pre-emergence Test, percentage damage caused to the plant (five-point scale), AMARE ([7]; Rate 250 g/Ha) | percentage damage caused to the plant, SETFA (Setaria faberi (SETFA); rate 250 g/Ha)

CCn1c(Cc2ccc(C#N)c(=O)[nH]2)cc(=O)c(C(=O)O)c1-c1ccc(Cl)c(Cl)c1 [Compound 114, 6-[(5-cyano-6-oxo-1H-pyridin-2-yl)methyl]-2-(3,4-dichlorophenyl)-1-ethyl-4-oxo-pyridine-3-carboxylic acid]
0: percentage damage caused to the plant, ZEAMX (Zea mays (ZEAMX) [9]; rate 250 g/Ha) | percentage damage caused to the plant, ECHCG ([2]; rate 250 g/Ha) | percentage damage caused to the plant, AMARE ([4]; rate 250 g/Ha) | percentage damage caused to the plant, AMAPA ([6]; rate 250 g/Ha) | percentage damage caused to the plant, SETFA (Setaria faberi (SETFA); rate 250 g/Ha)
